Data published in the supplement of paper PMC10331698.
± gives the standard deviation of the averaged measurements.

Tests used:
Experiment in all cases: level (log10 ratio to DMSO vehicle control); higher = higher biomarker level / cell amount than vehicle control
Details in all cases: in DMSO
[1] = compound: C=C(C)C(=O)OCC(F)(F)C(F)(F)C(F)(F)C(F)(F)C(F)(F)C(F)(F)C(F)(F)F
Procedure: (§1)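 BioMAP Diversity Plus panel of 12 human primary cell co-culture systems (3C, 4H, LPS, SAg, BT, BF4T, BE3C, CASM3C, HDF3CGF, KF3CT, MyoF, Mphg). Compounds were added 1 h before stimulation and left for 24 h (MyoF 48 h; BT 72 h for soluble read-outs or 6 d for IgG). Biomarkers were read by ELISA, cytotoxicity by SRB, PBMC viability and proliferation by Alamar Blue. Each well value was divided by the mean of 8 DMSO control wells on the same plate and log10 transformed; duplicate blinded samples were tested at 4 concentrations.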

1-(Perfluorohexyl)octane = compound: CCCCCCCCC(F)(F)C(F)(F)C(F)(F)C(F)(F)C(F)(F)C(F)(F)F [1-(Perfluorohexyl)octane]
Procedure: as §1

[2] = compound: O=C(O)C(F)(F)C(F)(F)C(F)(F)C(F)(F)C(F)(F)C(F)(F)C(F)(F)C(F)(F)Cl [9-Chloro-perfluorononanoic acid]
Procedure: as §1

[3] = compound: O=C(O)CCC(F)(F)C(F)(F)C(F)(F)C(F)(F)C(F)(F)F [2H,2H,3H,3H-Perfluorooctanoic acid]
Procedure: as §1

Row | Test System | level (log10) ([1]; 6700 nM) | level (log10) ([1]; 20000 nM) | level (log10) (1-(Perfluorohexyl)octane; 6700 nM) | level (log10) (1-(Perfluorohexyl)octane; 20000 nM) | level (log10) ([2]; 6700 nM) | level (log10) ([2]; 20000 nM) | level (log10) ([3]; 6700 nM) | level (log10) ([3]; 20000 nM) | level (log10) ([3]; 60000 nM)
1 | LPS:sTNF-alpha | 0.0045 ± 0.088 | 0.0175 ± 0.011 | 0.0005 ± 0.0064 | -0.0015 ± 0.013 | -0.0115 ± 0.0078 | -0.004 ± 0.014 | -0.017 ± 0.0014 | -0.0165 ± 0.005 | -0.014 ± 0.0085
2 | BE3C:HLA-DR | 0.008 ± 0.0085 | 0.001 ± 0.013 | 0.0095 ± 0.036 | 0.0015 ± 0.005 | -0.0575 ± 0.025 | -0.445 ± 0.052 | 0 ± 0.0042 | -0.009 ± 0.0071 | -0.0175 ± 0.012
3 | LPS:CD106/VCAM-1 | -0.021 ± 0.05 | -0.0085 ± 0.046 | 0.001 ± 0.0057 | 0.017 ± 0.0085 | -0.008 ± 0.045 | 0.003 ± 0.037 | 0.006 ± 0.023 | 0.018 ± 0.033 | -0.016 ± 0.082
4 | LPS:CD62E/E-Selectin | -0.021 ± 0.018 | 0.0025 ± 0.0035 | -0.005 ± 0.031 | 0.0115 ± 0.029 | -0.0095 ± 0.033 | 0.034 ± 0.0057 | 0.0405 ± 0.029 | 0.022 ± 0.028 | 0.027 ± 0.021
5 | BT:sIL-17A | 0.0535 ± 0.073 | -0.0375 ± 0.22 | 0.06 ± 0.018 | 0.0085 ± 0.12 | 0.015 ± 0.054 | 0.008 ± 0.047 | 0.0035 ± 0.021 | -0.199 ± 0.028 | -0.231 ± 0.099
6 | BT:sTNF-alpha | -0.042 ± 0.0099 | -0.0145 ± 0.013 | 0.0415 ± 0.028 | 0.126 ± 0.16 | 0.0075 ± 0.011 | 0.0075 ± 0.022 | -0.0085 ± 0.0035 | -0.0055 ± 0.074 | 0.005 ± 0.037
7 | BT:sIL-6 | 0.016 ± 0.0057 | -0.019 ± 0.059 | -0.0155 ± 0.094 | -0.006 ± 0.03 | 0.0155 ± 0.022 | 0.0135 ± 0.018 | 0.003 ± 0.011 | -0.0345 ± 0.013 | -0.0825 ± 0.032
8 | 4H:VEGFR2 | 0.0165 ± 0.0064 | 0.0365 ± 0.05 | 0.0045 ± 0.022 | 0.0245 ± 0.0021 | -0.108 ± 0.011 | -0.0395 ± 0.013 | 0.008 ± 0.011 | 0.02 ± 0.017 | 0.0155 ± 0.03
9 | BF4T:tPA | 0.0085 ± 0.0035 | -0.0115 ± 0.021 | 0.0075 ± 0.013 | 0.026 ± 0.0057 | -0.075 ± 0.0099 | -0.098 ± 0.0099 | -0.014 ± 0.0014 | -0.023 ± 0.0085 | -0.0535 ± 0.042
10 | BF4T:Keratin 8/18 | 0.014 ± 0.0028 | -0.003 ± 0.0014 | 0.006 ± 0.016 | 0.0055 ± 0.0078 | -0.004 ± 0.0057 | -0.0105 ± 0.0035 | -0.0015 ± 0.015 | -0.0055 ± 0.0021 | 0.005 ± 0.024
11 | SAg:CCL2/MCP-1 | -0.0015 ± 0.0035 | 0.0175 ± 0.0092 | -0.01 | 0.0015 ± 0.018 | 0.017 ± 0.021 | -0.0055 ± 0.005 | -0.005 ± 0.0085 | -0.007 ± 0.02 | -0.019 ± 0.025
12 | 4H:CD87/uPAR | -0.019 ± 0.025 | -0.0015 ± 0.028 | 0.027 ± 0.027 | 0.0155 ± 0.015 | 0.0055 ± 0.033 | 0.002 ± 0.0099 | -0.008 ± 0.04 | -0.0065 ± 0.03 | -0.062 ± 0.037
13 | BF4T:CCL2/MCP-1 | -0.008 ± 0.035 | 0.0195 ± 0.013 | -0.014 ± 0.028 | 0.0175 ± 0.005 | -0.034 ± 0.028 | -0.0785 ± 0.044 | 0.0285 ± 0.015 | -0.011 ± 0.031 | -0.0235 ± 0.096
14 | SAg:CD40 | -0.0375 ± 0.00071 | -0.0425 ± 0.011 | -0.0275 ± 0.00071 | -0.017 ± 0.016 | -0.013 ± 0.033 | -0.024 ± 0.031 | -0.0325 ± 0.054 | -0.025 ± 0.052 | -0.034 ± 0.048
15 | BT:PBMC Cytotoxicity | 0.0145 ± 0.025 | 0.0105 ± 0.029 | 0 ± 0.013 | 0.0225 ± 0.0021 | 0.015 ± 0.028 | 0.0355 ± 0.015 | 0.03 ± 0.021 | 0.0185 ± 0.033 | 0.019 ± 0.017
16 | BE3C:IL-1alpha | -0.008 ± 0.013 | 0.0405 ± 0.042 | 0.001 ± 0.02 | 0.0415 ± 0.044 | 0.023 ± 0.017 | -0.0765 ± 0.026 | -0.0075 ± 0.0064 | -0.0125 ± 0.019 | -0.005

Row | Test System | level (log10) ([1]; 6700 nM) | level (log10) ([1]; 20000 nM) | level (log10) (1-(Perfluorohexyl)octane; 6700 nM) | level (log10) (1-(Perfluorohexyl)octane; 20000 nM) | level (log10) ([2]; 6700 nM) | level (log10) ([2]; 20000 nM) | level (log10) ([3]; 6700 nM) | level (log10) ([3]; 20000 nM) | level (log10) ([3]; 60000 nM)
17 | BF4T:uPA | 0.0015 ± 0.032 | -0.0055 ± 0.005 | -0.0105 ± 0.0035 | -0.0125 ± 0.00071 | -0.0045 ± 0.012 | -0.01 ± 0.0071 | 0.0015 ± 0.015 | -0.003 ± 0.03 | -0.008 ± 0.013
18 | LPS:CD69 | -0.0065 ± 0.069 | 0.0095 ± 0.067 | -0.012 ± 0.061 | 0.007 ± 0.038 | -0.0335 ± 0.026 | -0.063 ± 0.028 | -0.0475 ± 0.084 | -0.076 ± 0.052 | -0.135 ± 0.051
19 | LPS:CCL2/MCP-1 | 0.007 ± 0.0071 | 0.017 ± 0.0085 | 0.006 ± 0.021 | 0.017 ± 0.013 | 0.005 ± 0.038 | 0.006 ± 0.0028 | 0.017 ± 0.011 | 0.018 ± 0.044 | 0.0255 ± 0.043
20 | 3C:Proliferation | -0.0365 ± 0.039 | -0.0595 ± 0.037 | -0.0125 ± 0.06 | -0.0035 ± 0.012 | 0.016 ± 0.079 | 0.019 ± 0.041 | -0.0415 ± 0.022 | -0.038 ± 0.033 | -0.007 ± 0.0014
21 | BF4T:CD54/ICAM-1 | -0.0015 ± 0.016 | -0.0075 ± 0.0064 | 0.0005 ± 0.005 | -0.0085 ± 0.023 | -0.0085 ± 0.0021 | -0.0355 ± 0.0064 | -0.0175 ± 0.018 | -0.0115 ± 0.0021 | -0.0075 ± 0.0092
22 | LPS:IL-1alpha | 0.016 ± 0.048 | 0.044 ± 0.016 | -0.0215 ± 0.016 | 0.001 ± 0.0057 | 0.038 ± 0.017 | 0.025 ± 0.021 | 0.0025 ± 0.00071 | 0.029 ± 0.035 | 0.0415 ± 0.00071
23 | BF4T:CCL26/Eotaxin-3 | 0.002 ± 0.055 | -0.0155 ± 0.042 | 0.015 ± 0.051 | 0.0015 ± 0.054 | -0.144 ± 0.016 | -0.27 ± 0.014 | -0.0305 ± 0.013 | -0.0615 ± 0.029 | -0.0695 ± 0.11
24 | 4H:CD62P/P-selectin | -0.0205 ± 0.076 | -0.0315 ± 0.063 | 0.0245 ± 0.039 | -0.007 ± 0.016 | -0.001 ± 0.065 | 0.0815 ± 0.023 | 0.005 ± 0.048 | -0.041 ± 0.073 | 0.002 ± 0.034
25 | 3C:HLA-DR | 0.0085 ± 0.011 | -0.0005 ± 0.019 | 0.028 ± 0.03 | 0.0205 ± 0.019 | -0.0105 ± 0.0078 | 0.004 ± 0.021 | -0.0085 ± 0.00071 | -0.019 ± 0.023 | -0.001 ± 0.0071
26 | BE3C:CXCL11/I-TAC | -0.0085 ± 0.016 | -0.0095 ± 0.0021 | 0.003 ± 0.016 | -0.0035 ± 0.0021 | 0.0515 ± 0.005 | -0.161 ± 0.032 | 0.0305 ± 0.016 | 0.0535 ± 0.012 | 0.036 ± 0.014
27 | BT:B cell Proliferation | -0.005 ± 0.021 | 0.0115 ± 0.0078 | 0.0145 ± 0.011 | 0.012 ± 0.011 | 0.04 ± 0.038 | 0.037 ± 0.017 | 0.0515 ± 0.028 | 0.078 ± 0.059 | 0.05 ± 0.05
28 | 3C:CXCL9/MIG | -0.001 ± 0.017 | 0.015 ± 0.0099 | 0.009 ± 0.023 | 0.017 ± 0.016 | -0.005 ± 0.0042 | 0.0065 ± 0.0078 | -0.006 ± 0.013 | -0.007 ± 0.027 | -0.0075 ± 0.021
29 | LPS:CD40 | -0.03 ± 0.024 | -0.0145 ± 0.021 | -0.0355 ± 0.079 | -0.0205 ± 0.049 | 0.02 ± 0.064 | 0.055 ± 0.0071 | -0.005 ± 0.047 | -0.014 ± 0.02 | -0.0635 ± 0.026
30 | LPS:SRB | -0.0025 ± 0.0078 | -0.0045 ± 0.005 | 0.0035 ± 0.0078 | 0.0035 ± 0.011 | 0.0015 ± 0.012 | -0.0035 ± 0.013 | -0.01 ± 0.0014 | -0.0115 ± 0.0035 | -0.0035 ± 0.0064
31 | BE3C:EGFR | -0.0175 ± 0.011 | -0.0295 ± 0.011 | -0.001 ± 0.0042 | -0.013 ± 0.0028 | -0.004 ± 0.0014 | -0.101 ± 0.015 | -0.004 ± 0.0042 | -0.0225 ± 0.029 | -0.008 ± 0.0099
32 | SAg:CD62E/E-Selectin | -0.001 ± 0.024 | 0.0155 ± 0.011 | -0.019 ± 0.013 | 0.003 ± 0.0099 | -0.017 ± 0.0042 | 0.017 ± 0.014 | -0.01 ± 0.03 | 0.0015 ± 0.025 | 0.029 ± 0.016
